Measurements reported in the supplement of paper PMC10307832.

Columns and labels:
Experiment in all cases: relative viability (nuclei count vs DMSO), 5 days (fraction); higher = more cells survive
Quizartinib + Dasatinib = compound: CC(C)(C)c1cc(NC(=O)Nc2ccc(-c3cn4c(n3)sc3cc(OCCN5CCOCC5)ccc34)cc2)no1 [Quizartinib] + Cc1nc(Nc2ncc(C(=O)Nc3c(C)cccc3Cl)s2)cc(N2CCN(CCO)CC2)n1 [Dasatinib] (partner 0.075 µM)
How it was run: (§1)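 Relative viability equals treated-well nuclei counts divided by vehicle-well nuclei counts. Counts came from 4× images of lung cancer cell lines grown in 1536-well plates for 5 days after pin-tool dosing on the day after seeding. Dosing used one drug alone or a fixed anchor-drug dose plus five library-drug doses (not always all listed) in √10 steps, and values are medians of duplicate plates.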

YM155 + Bortezomib = compound: COCC[n+]1c2c(n(Cc3cnccn3)c1C)C(=O)c1ccccc1C2=O [YM155] + CC(C)C[C@H](NC(=O)[C@H](Cc1ccccc1)NC(=O)c1cnccn1)B(O)O [Bortezomib] (partner 0.002 µM)
How it was run: as §1

YM155 + Tozasertib = compound: COCC[n+]1c2c(n(Cc3cnccn3)c1C)C(=O)c1ccccc1C2=O [YM155] + Cc1cc(Nc2cc(N3CCN(C)CC3)nc(Sc3ccc(NC(=O)C4CC4)cc3)n2)n[nH]1 [Tozasertib] (partner 0.1 µM)
How it was run: as §1

YM155 + Pemetrexed = compound: COCC[n+]1c2c(n(Cc3cnccn3)c1C)C(=O)c1ccccc1C2=O [YM155] + Nc1nc2[nH]cc(CCc3ccc(C(=O)N[C@@H](CCC(=O)O)C(=O)O)cc3)c2c(=O)[nH]1 [Pemetrexed] (partner 0.2 µM)
How it was run: as §1

Cell Line | relative viability (Quizartinib + Dasatinib; first compound 0.001 µM) | relative viability (Quizartinib + Dasatinib; first compound 0.003162 µM) | relative viability (Quizartinib + Dasatinib; first compound 0.01 µM) | relative viability (Quizartinib + Dasatinib; first compound 0.03162 µM) | relative viability (Quizartinib + Dasatinib; first compound 0.1 µM) | relative viability (YM155 + Bortezomib; first compound 0.002 µM) | relative viability (YM155 + Bortezomib; first compound 0.006325 µM) | relative viability (YM155 + Bortezomib; first compound 0.02 µM) | relative viability (YM155 + Bortezomib; first compound 0.06325 µM) | relative viability (YM155 + Tozasertib; first compound 0.002 µM) | relative viability (YM155 + Tozasertib; first compound 0.006325 µM) | relative viability (YM155 + Tozasertib; first compound 0.02 µM) | relative viability (YM155 + Tozasertib; first compound 0.06325 µM) | relative viability (YM155 + Pemetrexed; first compound 0.002 µM) | relative viability (YM155 + Pemetrexed; first compound 0.006325 µM) | relative viability (YM155 + Pemetrexed; first compound 0.02 µM) | relative viability (YM155 + Pemetrexed; first compound 0.06325 µM)
NCI-H1734 | 0.408 | 0.421 | 0.431 | 0.481 | 0.453 | 1 | 0.818 | 1.04 | 0.99 | 0.268 | 0.234 | 0.26 | 0.281 | 0.375 | 0.404 | 0.399 | 0.452
NCI-H1755 | 0.389 | 0.367 | 0.409 | 0.429 | 0.404 | 0.941 | 0.894 | 1.03 | 0.923 | 0.51 | 0.584 | 0.603 | 0.54 | 0.647 | 0.42 | 0.359 | 0.434
NCI-H1915 | 0.344 | 0.329 | 0.262 | 0.303 | 0.324 | 0.945 | 0.972 | 0.957 | 0.918 | 0.393 | 0.458 | 0.444 | 0.36 | 0.481 | 0.494 | 0.439 | 0.458
NCI-H1975 | 0.415 | 0.305 | 0.367 | 0.297 | 0.325 | 0.335 | 0.43 | 0.444 | 0.272 | 0.715 | 0.704 | 0.859 | 0.163 | 0.26 | 0.258 | 0.302 | 0.167
NCI-H1993 | 0.636 | 0.478 | 0.58 | 0.644 | 0.662 | 1.12 | 1.05 | 0.922 | 0.69 | 0.582 | 0.646 | 0.498 | 0.452 | 0.566 | 0.542 | 0.567 | 0.444
NCI-H2009 | 0.283 | 0.29 | 0.252 | 0.326 | 0.26 | 0.944 | 1.02 | 1.04 | 0.923 | 0.739 | 0.791 | 0.776 | 0.458 | 0.93 | 1.07 | 0.85 | 0.528
NCI-H2023 | 0.428 | 0.507 | 0.634 |  | 0.613 | 0.984 | 1.01 | 1.17 | 0.893 | 0.416 | 0.433 | 0.314 | 0.0926 | 0.23 | 0.247 | 0.194 | 0.155
NCI-H2085 | 0.282 | 0.237 | 0.253 | 0.231 | 0.236 | 0.949 | 0.974 | 0.83 | 0.631 | 0.794 | 0.804 | 0.867 | 0.77 | 0.705 | 0.884 | 0.911 | 0.869
NCI-H2087 |  | 0.699 | 0.863 | 0.626 | 0.979 | 0.872 | 0.76 | 0.867 | 0.783 | 0.253 | 0.23 | 0.253 | 0.219 | 0.639 | 0.677 | 0.685 | 0.604
NCI-H2126 | 0.454 | 0.603 | 0.655 |  | 0.625 | 1.07 | 1.13 | 1.09 | 1.16 | 0.807 | 0.88 | 0.948 | 0.934 | 0.696 | 0.691 | 0.67 | 0.753
NCI-H2228 | 0.608 | 0.413 | 0.597 | 0.494 | 0.509 | 0.975 | 0.923 | 1.11 | 1.1 | 0.265 | 0.26 | 0.213 | 0.316 | 0.329 | 0.318 | 0.332 | 0.326
NCI-H2347 | 0.3 | 0.298 | 0.296 | 0.376 | 0.304 | 0.984 | 1.05 | 1.24 | 0.819 | 0.531 | 0.59 | 0.786 | 0.567 | 0.542 | 0.407 | 0.436 | 0.39
NCI-H2405 | 0.266 | 0.198 | 0.216 | 0.202 | 0.244 | 0.951 | 1.01 | 0.971 | 0.701 | 0.678 | 0.704 | 0.637 | 0.513 | 0.886 | 0.961 | 0.914 | 0.452
NCI-H3122 | 0.92 | 0.565 | 1 | 0.721 | 0.838 | 1 | 1.01 | 1.05 | 0.973 | 0.43 | 0.423 | 0.396 | 0.273 | 0.185 | 0.214 | 0.189 | 0.186
PC-3 [JPC-3] | 0.925 | 0.967 | 1.09 | 1.01 | 1.03 | 0.823 | 0.94 | 0.774 | 0.904 | 0.879 | 0.984 | 0.869 | 0.941 | 0.978 | 1.22 | 1.07 | 0.967
PC-14 | 0.262 | 0.238 | 0.321 |  | 0.254 | 0.905 | 0.861 | 0.93 | 0.771 | 0.585 | 0.632 | 0.629 | 0.564 | 0.126 | 0.136 | 0.148 | 0.141
RERF-LC-KJ | 0.765 | 0.755 | 0.794 | 0.414 | 0.681 | 1.11 | 1.18 | 1.09 | 1.25 | 0.375 | 0.482 | 0.563 | 0.468 | 0.487 | 0.467 | 0.487 | 0.471
SK-LU-1 | 0.178 | 0.169 | 0.204 | 0.183 | 0.232 | 1.05 | 1.04 | 1.54 | 1.09 | 0.293 | 0.357 | 0.418 | 0.341 | 0.946 | 0.956 | 0.91 | 0.684
SW 1573 | 0.417 | 0.481 | 0.561 |  | 0.76 | 0.95 | 0.946 | 0.954 | 0.568 | 0.132 | 0.155 | 0.0846 | 0.0818 | 0.867 | 0.835 | 0.362 | 0.0865
